Test results: patent publication US5994342A, “3-(substituted methyl)-4-oxa-1-azabicyclo[3.2.0]heptan-7-one derivatives useful as antitumor agents” (priority 1994, dated 1999)
Values after ≈ are worked out from the molar mass of the structure shown. Where a name gives a salt, the structure may show the parent alone.

system: KB cells; assay: In vitro KB cell cytotoxicity assay (crystal violet); assay type: cell-based; settings: Homo sapiens, 72 h, 3 days culture, read-out: KB Cell Cytotoxicity TD50
Method: In Vitro KB Cell Cytotoxicity Assay In vitro KB cell cytoxocity assay was done by modification of the crystal violet assay ([…] et al., Anal Biochem., 159, 109-113 (1986). KB cells were cultivated in Eagles minimum essential medium supplemented with 10% calf serum and incubated at 37° C. in a humidified 5% CO2 atmosphere to prepare a cell stock. Cells were counted using a neubauer hemocytometer and seeded in 96 well plates at 100 μl of 3×10^4 cells/ml and cultured for one day. […] Control wells were identical except that test compound was absent. These were cultured for three days. Then the cells were fixed with addition of 20 μl of 25% glutaraldehyde for 15 minutes, washed with water and dried. Then stained with 100 μl of 0.05% crystal violet for 15 minutes, washed with water and dried. The wells are eluted with […] of 0.05M NaH2 PO4 /ethanol (1:1 v/v) and read at OD540 on a multiscan spectrophotometer. Inhibition value of cell growth was calculated based on optical density using the following equation; [formula] TD50 values were calculated from linear regression ines of the log-logit plot.

Row | SMILES | IC50 [µg/mL]
1 | N[C@@H](CC(=O)O)C(=O)N[C@@H](Cc1ccccc1)C(=O)NCC1CN2C(=O)CC2O1 (stereo partly drawn) [Example 64B, (3RS,5RS)-3-N-[L-2-N-(L-2-Amino-3-carboxypropanoyl)amino-3-phenylpropanoyl]aminomethyl-4-oxa-1-azabicyclo[3.2.0]heptan-7-one] | 2.65 (≈ 6.55 µM)
2 | O=COCC(=O)NC[C@@H]1CN2C(=O)C[C@H]2O1 (racemic) [Example 11, (3RS,5RS)-3-[N-(Formyloxyacetyl)aminomethyl]-4-oxa-1-azabicyclo[3.2.0]heptan-7-one] | 0.147 (≈ 0.644 µM)
3 | C[C@H](N)C(=O)NCC1CN2C(=O)CC2O1 (stereo partly drawn) [Example 50B, (3RS,5RS)-3-N-(L-2-Aminopropanoyl)aminomethyl-4-oxa-1-azabicyclo[3.2.0]heptan-7-one hydrochloride] | 0.657
4 | [N-]=[N+]=NCC(=O)NC[C@@H]1CN2C(=O)C[C@H]2O1 (racemic) [Example 9, (3RS,5RS)-3-[N-(Azidoacetyl)aminomethyl]-4-oxa-1-azabicyclo[3.2.0]heptan-7-one] | 0.296 (≈ 1.31 µM)
5 | O=C1C[C@H]2O[C@@H](CNS(=O)(=O)c3ccc(Cl)cc3)CN12 (racemic) [Example 37, (3RS,5RS)-3-[N-(4-Chlorobenzenesulfonyl)aminomethyl]-4-oxa-1-azabicyclo[3.2.0]heptan-7-one] | 0.484 (≈ 1.53 µM)
6 | N[C@@H](CO)C(=O)NCC1CN2C(=O)CC2O1 (stereo partly drawn) [Example 76B, (3RS,5RS)-3-[N-(L-2-Amino-3-hydroxypropanoyl)aminomethyl]-4-oxa-1-azabicyclo[3.2.0]heptan-7-one hydrochloride] | 8.81
7 | N#Cc1ccc(C(=O)NC[C@@H]2CN3C(=O)C[C@H]3O2)cc1 (racemic) [Example 30, (3RS,5RS)-3-[N-(4-Cyanobenzoyl)aminomethyl]-4-oxa-1-azabicyclo[3.2.0]heptan-7-one] | 0.378 (≈ 1.39 µM)
8 | O=C(CCCCCBr)NC[C@@H]1CN2C(=O)C[C@H]2O1 (racemic) [Example 13, (3RS,5RS)-3-[N-(6-Bromohexanoyl)aminomethyl]-4-oxa-1-azabicyclo[3.2.0]heptan-7-one] | 0.491 (≈ 1.54 µM)
9 | O=COCCCCCC(=O)NC[C@@H]1CN2C(=O)C[C@H]2O1 (racemic) [Example 14, (3RS,5RS)-3-[N-(6-Formyloxyhexanoyl)aminomethyl]-4-oxa-1-azabicyclo[3.2.0]heptan-7-one] | 0.243 (≈ 0.855 µM)
10 | C[C@@H](NC(=O)OCc1ccccc1)C(=O)N[C@@H](CO)C(=O)OCC1CN2C(=O)CC2O1 (stereo partly drawn) [Example 71, (3RS,5SR)-3-[L-2-N-(D-2-N-Benzyloxycarbonylaminopropanoyl)amino-3-hydroxypropanoyl]oxymethyl-4-oxa-1-azabicyclo[3.2.0]heptan-7-one] | 0.549 (≈ 1.26 µM)
11 | Cc1ccc(S(=O)(=O)NC[C@H]2CN3C(=O)C[C@H]3O2)cc1 (racemic) [Example 36, (3RS,5RS)-3-[N-(4-Toluenesulfonyl)aminomethyl]-4-oxa-1-azabicyclo[3.2.0]heptan-7-one] | 0.338 (≈ 1.14 µM)
12 | O=C(CO)NC[C@@H]1CN2C(=O)C[C@H]2O1 (racemic) [Example 12, (3RS,5RS)-3-[N-(Hydroxyacetyl)aminomethyl]-4-oxa-1-azabicyclo[3.2.0]heptan-7-one] | 0.125 (≈ 0.624 µM)
13 | CC(=O)N[C@@H](C(=O)OC[C@H]1CN2C(=O)C[C@@H]2O1)C(C)C (mixture of isomers) [Example 61, (3RS,5SR)-3-(D-2-Acetylamino-3-methylbutyryl)oxymethyl-4-oxa-1-azabicyclo[3.2.0]heptan-7-one] | 0.385
14 | COc1ccc(C(=O)NC[C@@H]2CN3C(=O)C[C@H]3O2)cc1 (racemic) [Example 25, (3RS,5RS)-3-[N-(4-Methoxybenzoyl)aminomethyl]-4-oxa-1-azabicyclo[3.2.0]heptan-7-one] | 0.255 (≈ 0.923 µM)
15 | CC(=O)N[C@@H](CCCCNC(=O)OCc1ccccc1)C(=O)OCC1CN2C(=O)CC2O1 (stereo partly shown) [Example 78] | 3.38 (≈ 7.55 µM)
16 | O=C(N[C@@H](COCc1ccccc1)C(=O)OCC1CN2C(=O)CC2O1)OCc1ccccc1 (stereo partly drawn) [Example 72, (3RS,5SR)-3-L-(2-N-Benzyloxycarbonylamino-3-benzyloxypropanoyl)oxymethyl-4-oxa-1-azabicyclo[3.2.0]heptan-7-one] | 1.67 (≈ 3.67 µM)
17 | [N-]=[N+]=NCCCCCC(=O)NC[C@@H]1CN2C(=O)C[C@H]2O1 (racemic) [Example 15, (3RS,5RS)-3-[N-(6-Azidohexanoyl)aminomethyl]-4-oxa-1-azabicyclo[3.2.0]heptan-7-one] | 0.254 (≈ 0.903 µM)

Row | SMILES | IC50 [µg/mL]
18 | CC(=O)NCCCCCC(=O)NC[C@@H]1CN2C(=O)C[C@H]2O1 (racemic) [Example 17, (3RS,5RS)-3-[N-(6-Acetylaminohexanoyl)aminomethyl]-4-oxa-1-azabicyclo[3.2.0]heptan-7-one] | 0.439 (≈ 1.48 µM)
19 | O=C(NC[C@@H]1CN2C(=O)C[C@H]2O1)c1ccc(O)cc1 (racemic) [Example 24, (3RS,5RS)-3-[N-(4-Hydroxybenzoyl)aminomethyl]-4-oxa-1-azabicyclo[3.2.0]heptan-7-one] | 0.276 (≈ 1.05 µM)
20 | O=C(NC[C@@H]1CN2C(=O)C[C@H]2O1)c1ccc(F)cc1 (racemic) [Example 27, (3RS,5RS)-3-[N-(4-Fluorobenzoyl)aminomethyl]-4-oxa-1-azabicyclo[3.2.0]heptan-7-one] | 0.24 (≈ 0.908 µM)
21 | O=C(Cn1ccnn1)NC[C@@H]1CN2C(=O)C[C@H]2O1 (racemic) [Example 10, (3RS,5RS)-3-[N-(1,2,3-Triazole-1-yl)acetylaminomethyl]-4-oxa-1-azabicyclo[3.2.0]heptan-7-one] | 0.282 (≈ 1.12 µM)
22 | O=C(NC[C@@H]1CN2C(=O)C[C@H]2O1)OCc1ccccc1 (racemic) [Example 21, (3RS,5RS)-3-[N-(Benzyloxycarbonyl)aminomethyl]-4-oxa-1-azabicyclo[3.2.0]heptan-7-one] | 0.34 (≈ 1.23 µM)
23 | O=C(NC[C@@H]1CN2C(=O)C[C@H]2O1)c1cc(F)ccc1F (racemic) [Example 28, (3RS,5RS)-3-[N-(2,5-Difluorobenzoyl)aminomethyl]-4-oxa-1-azabicyclo[3.2.0]heptan-7-one] | 0.379 (≈ 1.34 µM)
24 | CC(C)C(=O)NC[C@@H]1CN2C(=O)C[C@H]2O1 (racemic) [Example 5, (3RS,5RS)-3-[N-(2-Methylpropanoyl)aminomethyl]-4-oxa-1-azabicyclo[3.2.0]heptan-7-one] | 0.181 (≈ 0.853 µM)
25 | O=C(CCCCCn1ccnn1)NC[C@@H]1CN2C(=O)C[C@H]2O1 (racemic) [Example 16, (3RS,5RS)-3-[N-[(1,2,3-Triazol-1-yl)hexanoyl]aminomethyl]-4-oxa-1-azabicyclo[3.2.0]heptan-7-one] | 0.318 (≈ 1.03 µM)
26 | O=C(NC[C@@H]1CN2C(=O)C[C@H]2O1)c1cccnc1 (racemic) [Example 32, (3RS,5RS)-3-[N-[(Pyridin-3-yl)carbonyl]aminomethyl]-4-oxa-1-azabicyclo[3.2.0]heptan-7-one] | 0.78 (≈ 3.15 µM)
27 | O=C(N[C@@H](CO)C(=O)OCC1CN2C(=O)CC2O1)OCc1ccccc1 (stereo partly drawn) [Example 70, (3RS,5SR)-3-(L-2-N-Benzyloxycarbonylamino-3-hydroxypropanyl)oxymethyl-4-oxa-1-azabicyclo[3.2.0]heptan-7-one] | 0.352 (≈ 0.966 µM)
28 | C[C@@H](NC(=O)OCc1ccccc1)C(=O)N[C@@H](COCc1ccccc1)C(=O)OCC1CN2C(=O)CC2O1 (stereo partly drawn) [Example 73, (3RS,5R)-3-[L-2-N-(D-2-N-Benzyloxycarbonylaminopropanoyl)amino-3-benzyloxypropanoyl]oxymethyl-4-oxa-1-azabicyclo[3.2.0]heptan-7-one] | 2.22 (≈ 4.22 µM)
29 | O=C(NC[C@@H]1CN2C(=O)C[C@H]2O1)c1cc(F)c(F)cc1F (racemic) [Example 29, (3RS,5RS)-3-[N-(2,4,5-Trifluorobenzoyl)aminomethyl]-4-oxa-1-azabicyclo[3.2.0]heptan-7-one] | 0.535 (≈ 1.78 µM)
30 | C=CCCC(=O)NC[C@@H]1CN2C(=O)C[C@H]2O1 (racemic) [Example 19, (3RS,5RS)-3-[N-(4-Pentenoyl)aminomethyl]-4-oxa-1-azabicyclo[3.2.0]heptan-7-one] | 0.266 (≈ 1.19 µM)
31 | COc1ccc(C(=O)NC[C@@H]2CN3C(=O)C[C@H]3O2)cc1OC (racemic) [Example 26, (3RS,5RS)-3-[N-(3,4-Dimethoxybenzoyl)aminomethyl]-4-oxa-1-azabicyclo[3.2.0]heptan-7-one] | 0.249 (≈ 0.813 µM)
32 | CC(=O)NC[C@@H]1CN2C(=O)C[C@H]2O1 [Example 3, (3R,5R)-3-(N-Acetylaminomethyl)-4-oxa-1-azabicyclo[3.2.0]heptan-7-one] | 3.15 (≈ 17.1 µM)
33 | C#CC(=O)NC[C@@H]1CN2C(=O)C[C@H]2O1 (racemic) [Example 20, (3RS,5RS)-3-[N-Propynoylaminomethyl]-4-oxa-1-azabicyclo[3.2.0]heptan-7-one] | 0.333 (≈ 1.71 µM)
34 | O=C(O)CCC(=O)NC[C@H]1CN2C(=O)C[C@@H]2O1 (relative stereo) [Example 18, Sodium{N-[(3RS,5RS)-7-oxo-1-aza-4-oxabicyclo[3.2.0]hept-3-yl]methylamino}succinate] | 2.85
